From ChEMBL document CHEMBL4385620, “Inhibition of polypeptide N-acetyl-α-galactosaminyltransferases is an underlying mechanism of dietary polyphenols preventing colorectal tumorigenesis” (Bioorg Med Chem, 2019)
Calls of active or inactive are those of the source. The rule behind the calls is not given here.

Legend:
[1] = target: T1, Polypeptide N-acetylgalactosaminyltransferase 2 (Homo sapiens, UniProt Q10471); assay: Inhibition of catalytic activity of human recombinant FLAG-tagged ppGalNAcT2 expressed in HEK293T cells and using 5-FAM labelled-EA2 peptide as substrate incubated for 30 mins by HPLC-based enzyme assay
T1 sequence (Q10471 whole entry): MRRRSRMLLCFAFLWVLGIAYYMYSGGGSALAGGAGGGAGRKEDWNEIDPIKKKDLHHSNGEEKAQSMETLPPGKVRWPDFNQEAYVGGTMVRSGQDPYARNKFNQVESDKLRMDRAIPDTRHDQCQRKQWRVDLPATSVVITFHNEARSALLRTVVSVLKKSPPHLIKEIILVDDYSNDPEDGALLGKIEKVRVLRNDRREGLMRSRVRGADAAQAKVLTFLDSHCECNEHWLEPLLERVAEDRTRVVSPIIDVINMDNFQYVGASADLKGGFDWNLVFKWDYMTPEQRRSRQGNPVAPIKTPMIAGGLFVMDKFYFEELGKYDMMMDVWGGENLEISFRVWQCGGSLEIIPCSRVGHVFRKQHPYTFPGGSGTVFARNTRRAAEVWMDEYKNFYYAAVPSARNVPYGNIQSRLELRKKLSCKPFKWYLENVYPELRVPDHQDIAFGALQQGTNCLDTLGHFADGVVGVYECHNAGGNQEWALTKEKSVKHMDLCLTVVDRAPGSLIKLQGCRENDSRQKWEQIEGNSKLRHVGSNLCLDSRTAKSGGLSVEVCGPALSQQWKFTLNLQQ

[2] = target: T1, Polypeptide N-acetylgalactosaminyltransferase 2; assay: Binding affinity of human recombinant FLAG-tagged ppGalNAcT2 expressed in HEK293 cells assessed as dissociation constant by SPR analysis
[3] = target: T1, Polypeptide N-acetylgalactosaminyltransferase 2; assay: Binding affinity of human recombinant FLAG-tagged ppGalNAcT2 expressed in HEK293 cells assessed as association rate by SPR analysis
[4] = target: T1, Polypeptide N-acetylgalactosaminyltransferase 2; assay: Binding affinity of human recombinant FLAG-tagged ppGalNAcT2 expressed in HEK293 cells assessed as dissociation rate by SPR analysis
[5] = target: T1, Polypeptide N-acetylgalactosaminyltransferase 2; assay: Inhibition of ppGalNAcT2 in human HT-29 cells assessed as reduction in O-GalNAc glycans by measuring PNA lectin signal on cell surface at 40 uM incubated for 48 hrs by DAPI staining based immunofluorescence method
[6] = target: Polypeptide N-acetylgalactosaminyltransferase 2 (Homo sapiens, UniProt Q10471, W282A); assay: Inhibition of catalytic activity of human recombinant FLAG-tagged ppGalNAcT2 W282A mutant expressed in HEK293 cells using EA2 peptide as substrate by HPLC-based enzyme assay
Polypeptide N-acetylgalactosaminyltransferase 2 (Homo sapiens, UniProt Q10471, W282A), sequence (Q10471 whole entry W282A): as the sequence (Q10471 whole entry) above, with W282A counted along it

Homo sapiens = organism: Homo sapiens; assay: Ratio of IC50 for IC50 for human recombinant FLAG-tagged ppGalNAcT2 W282A mutant to IC50 for human recombinant FLAG-tagged ppGalNAcT2

Row | Compound | IC50 [1] | Kd [2] | kon [3] | koff [4] | inhibition [5] | IC50 [6] | Ratio IC50 (Homo sapiens)
1 | O=c1oc2cc(O)ccc2c2ccccc12 | > 100000 nM | – | – | – | – | – | –
2 | O=C(O)c1cc(O)c(O)c(O)c1 [GALLIC ACID] | 1370 nM | 924 nM | 1454 M⁻¹ s⁻¹ | 1.34 ×10⁻³ /s | – | – | –
3 | COc1c(O)cc2c(=O)oc3c(OC)c(O)cc4c(=O)oc1c2c34 | > 100000 nM | – | – | – | – | – | –
4 | c1cc2ccc3cccc4ccc(c1)c2c34 [PYRENE] | > 100000 nM | – | – | – | inactive | – | –
5 | O=c1oc2c(O)c(O)cc3c(=O)oc4c(O)c(O)cc1c4c23 [ELLAGIC ACID] | 510 nM | 371 nM | 2367 M⁻¹ s⁻¹ | 8.79 ×10⁻⁴ /s | Active | 2930 nM | 6
